Assay results: patent publication US4368194A, “Pharmacologically active amine boranes” (The United States of America as represented by the …, priority 1981, dated 1983)

How the values were obtained:
[1] = tested on: carrageenan induced edema in mouse foot pads; test: Anti-inflammatory screen (carrageenan induced foot edema); format: in vivo, mice; settings: for Anti-inflammatory Screen: mice
Method: CF1 male mice (about 30 g) were administered test drugs at 10 mg/kg in 0.05% polysorbate .80-water intraperitoneally 3 hr and 30 min prior to 0.05 ml of 2% carrageenan in 0.9% saline injected into the plantar surface of the right hind foot. Saline injected into the left hind foot served as a base line. After 3 hr, both feet were excised at the tibiotarsal (ankle) joint according to the modified (Roszkowski et al., J. Pharm. Exp. Ther., 179, 114 1971) method of Winter, resulting in an 87 mg net increase in the weight of the control animals' feet.

CF1 male mice = test: Writhing reflex (acetic acid); format: in vivo; settings: mice
Method: CF1 male mice were administered test drugs at 20 mg/kg intraperitoneally 20 min (see Hendershat et al., J. Pharmacol Exp. Ther. 125, 237 1959) prior to the administration of 0.5 ml of 0.6% acetic acid (Vingar et al., European J. PHarmacol, 37, 23 1976). After 5 min the number of stretches, characterized by repeated contractures of the abdominal musculature accompanied by extension of the hind limbs, was counted for the next 10 min. The control mice had 78 stretch reflexes per 10 min.

Male Sprague Dawley rats = test: Chronic adjuvant arthritic screen; format: in vivo; settings: indomethacin tested at 10 mg/kg, rats
Method: Male Sprague Dawley rats (about 160 g) were injected at the base of the tail with 0.2 ml of solution of killed and dried Mycobacterium butyricum and digitonin in mineral oil (see Waksman et al., J. Immunol., 85, 403 1960). Test drugs were administered intraperitoneally commencing on day 3 through day 20 at 2.5 mg/kg/day. Animals were sacrificed on day 21, and the feet were excised and weighed.

Acid phosphatase [2] = test: Lysosomal free acid phosphatase activity, liver homogenate; format: biochemical, rats; settings: 5 μmoles, in vitro; 20 min
Method: (§1) Lysosomal enzymatic assays - Sprague Dawley rats (about 160 g) were sacrificed, the liver excised, and a 10% homogenate (4x) in 0.25 M sucrose and 0.001 M (ethylenedinitrilo) tetra acetic acid, ph 7.2 was prepared.
(§2) Acid phosphatase activity (Gianetto et al., Biochem J., 59, 433 1955) was carried out by incubating with 0.1 Mβ-glycerol phosphate in 0.1 M acetate, pH 5.0 with 5 μmoles of test drugs in 1% carboxymethylcellulose (CMC) for 20 min with liver homogenate and 60 min with resuspended PMNs. Lysosome enzymes were released by 0.02% alkyl phenoxy polyethoxy ethanol-100 to obtain the total enzymatic activity. The reaction was stopped with 10% trichloroacetic acid and the solution centrifuged. Aliquots of the supernatant were assayed for inorganic phophate content by the method of Chen et al., Anal Chem., 28, 1756 (1956). Percent free acid phosphatase was calculated. Cathepsin activity was determined in an analagous manner except the substrate used was 2% azocasein (Schleuning et al., Methods in Enzymology, XLV, 330 1976) in 0.1 M acetate buffer pH 5.0. The supernatant was assayed for acid soluble peptide fragments at 366 nm. Percent free cathepsin activity was calculated.

Cathepsin [3] = test: Lysosomal free cathepsin activity, liver homogenate; format: biochemical, rats; settings: 5 μmoles; for Liver % Free Cathepsin Activity, pH5: in vitro, 20 min
Method: as §1, §2

Acid phosphatase [4] = test: Lysosomal free acid phosphatase activity, PMNs; format: cell-based; settings: 5 μmoles; for PMNs % Free Acid Phosphatase Activity, pH5: in vitro, 60 min
Method: (§3) Polymorphonuclear neutrophils (PMNs) were collected from the peritoneal cavity four hr after the injection of 35 ml of 0.5% oyster glycogen in isotonic saline (Orange et al., J. Exp. Med., 127, 767 1968). The PMNs were centrifuged down at 800 g for 20 min, washed, and resuspended in minumen essential medium (MEM) with 10% fetal calf serum pH 7.4.
as §2

Cathepsin [5] = test: Lysosomal free cathepsin activity, PMNs; format: cell-based; settings: 5 μmoles, in vitro; 60 min
Method: as §3, §2

cAMP levels in PMNs = test: Cyclic-3',5'-adenosine monophosphate levels (cAMP) in PMNs; format: cell-based; settings: 1 h; for activity at 5 µmol: pH 7.4, read-out: PMNs cAMP Level
Method: as §3
Isolated PMNs were incubated with test drugs at 5μ moles for 1 hr at 37° C. in MEM at pH 7.4. The reaction was stopped with 6% trichloroacetic acid. The cyclic-3',5'-adenosine monophosphate levels were determined by the radioimmunoassay of Gilman, Proc. Natl. Acad. Sci. (USA), 67, 305 (1970), using 3H(G)-cyclic-3',5'-adenosine monophosphate (39.8 Cu/m mol). Results were calculated in p mole/10^7 PMNs cells.

[6] = biological target: T1, prostaglandin synthetase from beef seminal vesicle (Bos taurus, UniProt O62664); test: Prostaglandin synthetase activity; format: biochemical; settings: for inhibition at 1 µM / activity at 1 µM: 10^-6 M
T1 construct: purchased; host or cells: beef seminal vesicle
T1 sequence (O62664 25-600): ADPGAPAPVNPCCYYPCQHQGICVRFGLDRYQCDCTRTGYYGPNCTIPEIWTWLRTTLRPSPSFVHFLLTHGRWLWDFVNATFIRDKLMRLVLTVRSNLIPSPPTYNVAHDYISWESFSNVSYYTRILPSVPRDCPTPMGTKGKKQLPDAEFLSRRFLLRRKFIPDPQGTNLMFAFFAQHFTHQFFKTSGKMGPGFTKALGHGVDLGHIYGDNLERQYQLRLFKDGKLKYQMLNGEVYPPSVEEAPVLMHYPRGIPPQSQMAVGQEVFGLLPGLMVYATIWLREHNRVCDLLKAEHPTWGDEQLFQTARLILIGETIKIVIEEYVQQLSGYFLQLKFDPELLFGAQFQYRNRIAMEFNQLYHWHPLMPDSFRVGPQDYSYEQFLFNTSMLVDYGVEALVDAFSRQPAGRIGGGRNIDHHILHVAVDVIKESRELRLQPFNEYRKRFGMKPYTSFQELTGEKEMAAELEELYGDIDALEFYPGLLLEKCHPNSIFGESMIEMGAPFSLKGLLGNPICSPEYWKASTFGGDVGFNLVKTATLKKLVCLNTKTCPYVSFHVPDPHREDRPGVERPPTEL
Method: After 1 hr at 37° C. the reaction was stopped with 1 N HCl and extracted with ethyl ether and evaporated. […] The plates were dried and developed in iodine vapor and with the use of prostaglandin standards the appropriate areas were scraped and counted for ^3 H content. Indometacin was used as a standard at 10^-4 M concentration. Test drugs were used at 10^-6 M.

liver mitochondria [7] = test: Oxidative phosphorylation, succinate as substrate; format: biochemical, rats; settings: 5 μmoles; for Oxidative Phosphorylation Succinate State 3: ADP stimulated respiration; for Oxidative Phosphorylation Succinate State 4: basal respiration
Method: (§4) Basal and adenosine diphosphate stimulated respiration on 10% liver homogenates was measured using succinate or αketoglutarate as substrate. See Glatt, et al., supra. The reaction vessel contained sucrose 55μ moles, KCl 22μ moles, K2 HPO4 22μ moles, test compounds at 5μ moles in 1% CMC and sodium succinate 90μ moles or αketoglutarate 60μ moles in a total volume of 1.8 ml. […] The rate of respiration was calculated at μl of O2 consumed/hr/mg wet weight of liver.

liver mitochondria [8] = test: Oxidative phosphorylation, α-ketoglutarate as substrate; format: biochemical, rats; settings: 5 μmoles; for Oxidative Phosphorylation α Ketoglutarate State 3: ADP stimulated respiration; for Oxidative Phosphorylation α Ketoglutarate State 4: basal respiration
Method: as §4

in vivo = settings: mouse
[9] = Hydrolytic, air and moisture stability; settings: concentrated HCl, 70 hr, room temperature
Sprague Dawley rats = test: Red and white blood cell counts after 3 weeks dosing; format: in vivo; settings: dosing for three weeks intraperitoneally, rats
Text: Hematocrits were also obtained.

[10] = indomethacin tested at 10 mg/kg
[11] = read-out: inhibition of prostaglandin synthesis
[12] = 1 h, read-out: Prostaglandin Synthesis

Row | SMILES | Liver % Free Acid Phosphatase Activity, pH5 (Acid phosphatase [2]) | Liver % Free Cathepsin Activity, pH5 (Cathepsin [3]) | PMNs % Free Acid Phosphatase Activity, pH5 (Acid phosphatase [4]) | PMNs % Free Cathespin Activity, pH5 (Cathepsin [5]) | activity at 5 µmol (cAMP levels in PMNs) | inhibition at 1 µM [6, 11] | activity at 1 µM [6, 12] | Oxidative Phosphorylation Succinate State 3 (liver mitochondria [7]) | Oxidative Phosphorylation Succinate State 4 (liver mitochondria [7]) | Oxidative Phosphorylation α Ketoglutarate State 3 (liver mitochondria [8]) | Oxidative Phosphorylation α Ketoglutarate State 4 (liver mitochondria [8]) | LD50 (in vivo) | further results
1 | COc1ccc2c(c1)c(CC(=O)O)c(C)n2C(=O)c1ccc(Cl)cc1 [Indomethacin, reference compound] | 86 ± 4 % Control | 67 ± 6 % Control | 100 ± 2 % Control | 100 ± 1 % Control | 80% | 24% | – | – | – | – | – | – | Anti-inflammatory Screen [1, 10]: 22 % Control; Writhing Reflex (CF1 male mice; [10]): 43 % Control; Anti-Arthritic Screen (Male Sprague Dawley rats): 27 % Control; inhibition at 100 µM ([6]; 10^-4 M, read-out: inhibition of prostaglandin synthesis): 36%; activity at 100 µM ([6]; 1 h, 10^-4 M (indomethacin), read-out: Prostaglandin Synthesis): 64 ± 2%
2 | N#C[BH2-][NH3+] [XVII, ammonia-cyanoborane] | 75 ± 5 % Control | 48 ± 6 % Control | 100 ± 2 % Control | 26 ± 4 % Control | 93% | > 30% | 55 ± 6% | 60 ± 11 % Control | 112 ± 7 % Control | 40 ± 9 % Control | 149 ± 27 % Control | 30 mg/kg | Anti-inflammatory Screen ([1]; 10 mg/kg × 2 intraperitoneally): 51 % Control; inhibition of the carrageenan induced edema in mouse foot pads ([1]; text summary of Table II): at least 40%; Writhing Reflex (CF1 male mice; 20 mg/kg intraperitoneally): 50 % Control; loss of hydrogen (hydrolytic stability) [9]: 8%
3 | C[N+]1([BH2-]C#N)CCOCC1 [XIV, O(CH2 CH2)2 N(CH3).BH2 CN] | 68 ± 7 % Control | 13 ± 5 % Control | 50 ± 3 % Control | 37 ± 5 % Control | 165% | – | 38 ± 3% | 36 ± 5 % Control | 62 ± 10 % Control | 51 ± 16 % Control | 140 ± 47 % Control | 23 mg/kg | Anti-inflammatory Screen ([1]; 1/3 dose (of 10 mg/kg × 2)): 91 % Control; Writhing Reflex (CF1 male mice; 1/3 dose (of 20 mg/kg)): 78 % Control; alteration of the red blood or white blood cell count/cu mm (Sprague Dawley rats): no alteration; inhibition of free proteolytic cathepsin activity of liver (Cathepsin [3]): at least 75%; inhibition of free acid phosphatase activity in PMNs (Acid phosphatase [4]): 50%; activation at 5 µmol (cAMP levels in PMNs; read-out: increase of cyclic adenosine monophosphate levels in PMNs): 65%; both states 3 and 4 respiration with succinate (liver mitochondria [7]): inhibited
